One series addresses T1, Aβ42 (Homo sapiens, UniProt P05067).
T1 construct: Aβ42 was obtained from American Peptide, Inc. (Sunnyvale, Calif.); purchased American Peptide, Inc. (Sunnyvale, Calif.)
As to the kind of experiment: Aβ42 oligomerization inhibition assay (Western blot). The format is biochemical. The following applies: Aβ42 5 μM, compound 20 μM, 4 hrs at 37° C.

Another series has as its system splenocytes. The series is described as follows: Anti-CD3 antibody mediated splenocyte proliferation. The format is cell-based, B6C3F1 mice. The settings on record: 10 μM. As for the experimental part:
Anti-CD3 antibody mediated splenocyte proliferation. […] The splenocytes (2×10^5/well) were cultured in the microtiter wells coated with anti-CD3 Ab (1 μg/mL; BD PharMingen) in the presence of 1 or 14 (10 μM) at 37° C. in 5% CO2. Prior to harvest on day 3, the cells were pulsed with ^3H-thymidine for 18-24 hours. The incorporation of ^3H-thymidine into the proliferating cells was used as the endpoint of the assay, and the data were expressed as CPM/2×10^5 cells.

The next series has as its system AβOs. The series is described as follows: Western blot assay of AβOs formation in MC65 cells (6E10 antibody). The format is cell-based, human. The settings on record: 10 μM, 24 hrs after removal of TC. From the text: Inhibition of AβOs production by designed BMAOIs. […] The whole cell assay is a composite of not only Aβ oligomerization inhibition but also permeability, stability and other factors will validate the accessibility and function of our BMAOIs. MC65 is a human neuroblastoma cell line that conditionally expresses C99, the C-terminus fragment of APP using tetracycline (TC) as transgene suppressor.^38 Upon removal of TC, these cells can produce intracellular Aβ aggregates including small AβOs. […] All BMAOIs were first evaluated at a single concentration of 10 μM. Candidate compounds with inhibitory activities at this concentration were further evaluated in a dose-dependent manner in the following assays. […]
Western blot assay. […] Pellet was lysed by sonication in 1× lysis buffer (62.5 mM Tris base, pH6.8, 2% SDS, 50 mM DTT, 10% glycerol, 0.1% bromphenol blue, and […] each chymostatin, leupeptin, aprotinin, pepstatin, and soybean trypsin inhibitor) and protein level was determined using Coomassie Protein Assay Reagent (Pierce, Rockford, Ill.). […]

Series [1] has as its system intracellular oxidative stress. As to the kind of experiment: DCFH-DA antioxidation assay in MC65 cells. The format is cell-based, human. The following applies: −TC, 24 hrs.
Experimental: DCFH-DA antioxidation assay. MC65 cells were seeded in 96-well plates (4×10^4 cells/well). After incubation at 37° C., 5% CO2 for 24 hrs, the medium was removed and washed with PBS. Opti-MEM and test compounds were added (+TC, −TC, and blank with only test compounds). MC65 cells were incubated at 37° C., 5% CO2 for 24 hrs. Then DCFH-DA in Opti-MEM was added to each well (final DCFH-DA concentration was 25 uM) and incubate at 37° C., 5% CO2 for 30 min. The medium was removed and replaced with fresh opti-MEM and plates were read for fluorescence intensity at 485 nm (excitation)/530 nm (emission) using FlexStation III plate reader (Molecular Devices).
Another series deals with SH-SY5Y cells. As to the kind of experiment: Cytotoxicity assay in differentiated SH-SY5Y cells treated with AβOs. The format is cell-based, human. The settings on record: AβOs 1 μM, 48 hrs, all of the tested concentrations.
A further series can be described thus: in vitro. The settings on record: human, Caco-2. As for the experimental part:
Assessment of permeability and P-glycoprotein using Caco-2 cell model. […] To test whether 14 has the potential to reach the brain, we determined its permeability and transport directionality using the Caco-2 model.^48 Although the Caco-2 cell monolayer model is derived from the colon rather than the brain, this model expresses efflux transporters such as P-glycoprotein which are also expressed at the BBB.
Caco-2 permeability assay. Caco-2 cells (ATCC, Manassas, Va.) were cultured in high-glucose DMEM supplemented with 10% FBS and used between passages 30-50. Caco-2 cells were plated on 12-well polyester transwell inserts ([…] pore size) (Coming #3460) at a density of 80,000 cells/cm^2 and grown to 100% confluence (21 days). Filters were rinsed in Hank's balanced salt solution (HBSS) and test compounds (10 μM) were added to either the apical (0.5 mL) or basolateral (1.5 mL) side and incubated at 37° C. with shaking (100 rpm). Samples (200 μL) were removed at 30, 60, and 120 minutes with replacement of an equal volume of the appropriate buffer containing or lacking the compounds. Samples were stored at −20° C. until analysis. After 120 minutes, lucifer yellow was added to the donor chamber, with additional sampling as above at 10, 20, and 30 minutes. Lucifer yellow was analyzed by fluorescence (excitation 450 nm, emission 528 nm) in a Synergy 2 microplate reader. […] Buffer samples (200 μL) were mixed with acetonitrile (100 μL) and acetic acid (2 μL), vortexed and centrifuged at 4° C. for 5 minutes at 12,000 ref. Supernatants (100 μL) were injected onto an Alltech Alltima HP C18 4.6×100 mm 3 μm column and eluted with 38% acetonitrile, 62% aqueous (1% acetic acid in water) at 1.0 mL/min. To improve sensitivity over UV detection, fluorescence (Waters 2475) at the excitation/emission wavelengths of 443/533 and 274/305 (nm) for 1 and 14, respectively, was also detected. Permeability was determined according to Fick's Law. Efflux transport activity was defined as a permeability directional ratio (efflux ratio) ≧2.

Consider one compound from US9260473B2, “Bivalent multifunctional ligands targeting Aβ oligomers as treatment for Alzheimer's disease” (Virginia Commonwealth University, priority 2010, dated 2016).

T1 sequence (P05067 672-713 limits assumed): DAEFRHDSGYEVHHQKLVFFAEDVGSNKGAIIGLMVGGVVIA
Experimental for Aβ42: In order to confirm 14 can bind to AβOs, the inhibition of Aβ42 oligomerization was performed and assessed using Western blot analysis as described in literature^29 in order to investigate binding interactions of 14 with Aβ42 and the CM/LR of MC65 cells. Briefly, Aβ42 (5 μM) was incubated with or without compounds (20 μM), then samples were analyzed by Western blot using 6E10 antibody.
Aβ42 oligomerization inhibition assay. An aliquot of Aβ42 (0.045 mg) was dissolved in 20 μL of DMSO and diluted in Ham's F-12 media without phenol red (Caisson's Laboratory, Inc., Utah). […] After incubation, the samples (50 μL) were spun down at 14,000×g for 10 min. The supernatant (20 μL) was mixed with an equal part of Tricine sample buffer without reducing agents (Bio-Rad). The unaggregated Aβ42 control was not incubated at 37° C., and mixed with sample buffer (no centrifuging) and stored at −80° C. before it was electrophoresed. Samples (25 μL) were electrophoresed on a 10-20% Tris-Tricine gel, transferred to PVDF membrane, and blocked with 10% nonfat milk in PBS for 30 min. […] The proteins were visualized by Western Blot Chemiluminescence Reagent (NEN Life Science Products, Boston, Mass.).
Experimental for SH-SY5Y cells: To further verify whether 14 can protect cells from extracellular AβOs-induced cytotoxicity, all trans-retinoic acid differentiated human SH-SY5Y cells were employed.
Cytotoxicity assay in differentiated SH-SY5Y cells. SH-SY5Y cells were plated at 10,000 cells/well in type 1 collagen coated 96-well plates (Invitrogen) and were differentiated in Opti-MEM supplemented with 2% B-27 (Invitrogen) and 10 μM all-trans-retinoic acid for 7 days. The medium was removed and replaced with fresh maintenance medium. Freshly prepared Aβ42 oligomers in Ham's F-12 medium (1 μM) was added to cells for 48 hrs at 37° C. with or without test compounds. After treatment, 20 uL CellTiter 96 AQueous One Solution (Promega, Madison, Wis.) were added to each well and the plates were incubated at 37° C., 5% CO2 for 2-4 hrs. The plates were read at 490 nm in FlexStation III plate reader (Molecular Devices). Each data point was averaged from six replicates and the experiments were independently repeated at least three times.

On to `COc1cc(C=CC(=O)C(Cc2cn(CCCCCCNC(=O)CCNC(=O)CCNC(=O)COC3CCC4(C)C(=CCC5C4CCC4(C)C(C(C)CCCC(C)C)CCC54)C3)nn2)C(=O)C=Cc2ccc(O)c(OC)c2)ccc1O` (centres unmarked) [BMAOI 14], for which the “inhibition of oligomerization of Aβ42” value against Aβ42 is “inhibited the oligomerization of Aβ42”. Also, the “cytotoxic effects in mouse spleen cells” value with splenocytes was “minimal cytotoxic effects”. Further, the “inhibition of the formation of AβOs (Western blot)” value with AβOs is recorded as “significantly inhibited”. Moreover, in series [1], the “suppression of intracellular oxidative stress (DCFH-DA fluorescence)” value is given as “suppressed the intracellular oxidative stress in a dose-depndent manner”. The “protection of SH-SY5Y cell viability from AβOs” value in the series with SH-SY5Y cells is “completely restored the cell viability”. In “in vitro”, the apparent permeability from apical to basolateral (Papp A→B) at 120 min, 10 µM stood at 7.1 ×10⁻⁶ cm/s; the Papp B→A at 120 min, 10 µM is 4.7 ×10⁻⁶ cm/s; the efflux ratio at 120 min, 10 µM came out at 0.63.
